Laboratory results: patent US20250171437A1 (Agios Pharmaceuticals,Inc., priority 2022, published 2025)

What follows are compounds tested against T1, human PAH with the R408W mutation (A375 R408W cells) (Homo sapiens, UniProt P00439, R408W) (assay: Cell Based Phenylalanine Flux Assay). Details: A375 R408W cells; 24 hrs with compound, then 20 μM sepiapterin and 800 μM 13C9,15N-Phenylalanine for 4 hours; 13C-Tyrosine by LC-MS; average where tested multiple times.
T1 construct: expressed in transfected cells
T1 sequence (P00439 1-452 R408W): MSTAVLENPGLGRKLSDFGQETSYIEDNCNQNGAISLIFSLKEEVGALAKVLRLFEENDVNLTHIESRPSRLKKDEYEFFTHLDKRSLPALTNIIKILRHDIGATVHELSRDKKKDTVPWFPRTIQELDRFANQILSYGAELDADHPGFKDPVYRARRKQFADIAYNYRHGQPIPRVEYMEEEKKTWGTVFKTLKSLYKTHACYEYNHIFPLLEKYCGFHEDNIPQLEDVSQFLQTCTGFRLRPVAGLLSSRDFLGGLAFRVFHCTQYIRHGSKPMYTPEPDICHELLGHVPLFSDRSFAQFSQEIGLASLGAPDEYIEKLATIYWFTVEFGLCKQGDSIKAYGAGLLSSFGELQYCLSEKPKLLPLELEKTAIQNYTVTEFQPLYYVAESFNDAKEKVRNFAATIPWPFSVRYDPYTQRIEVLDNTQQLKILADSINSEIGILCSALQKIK
In short: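 AC50 is derived from LC-MS of 13C-tyrosine in the media after a 4 h pulse of 800 μM 13C9,15N-phenylalanine plus 20 μM sepiapterin. The A375 R408W PAH cells had received duplicate 10-point, 2-fold compound dilutions (0.5% DMSO) for 24 h beforehand.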

Row | AC50 | Compound
1 | 1 to 5 µM | O=C(c1cnco1)N1CCc2[nH]cnc2[C@@H]1c1nc2ccccc2o1 [Example 548, (R)-(4-(benzo[d]oxazol-2-yl)-6,7-dihydro-1H-imidazo[4,5-c]pyridin-5(4H)-yl)(oxazol-5-yl)methanone]
2 | 0.5 to 1 µM | Cc1cccc2oc([C@H]3c4nc[nH]c4CCN3C(=O)c3nnc(-c4cnn(C)c4)o3)nc12 [Example 479, (R)-(5-(1-methyl-1H-pyrazol-4-yl)-1,3,4-oxadiazol-2-yl)(4-(4-methylbenzo[d]oxazol-2-yl)-6,7-dihydro-1H-imidazo[4,5-c]pyridin-5(4H)-yl)methanone]
3 | 1 to 5 µM | Cn1nc(Cl)nc1C(=O)N1CCc2[nH]cnc2[C@@H]1c1nc2c(F)cccc2o1 [Example 278, (R)-(3-chloro-1-methyl-1H-1,2,4-triazol-5-yl)(4-(4-fluorobenzo[d]oxazol-2-yl)-6,7-dihydro-1H-imidazo[4,5-c]pyridin-5(4H)-yl)methanone]
4 | 1 to 5 µM | O=C(c1ccnn1CC(F)F)N1CCc2[nH]cnc2[C@H]1c1nc2c(F)cccc2o1 [Example 850, (S)-(1-(2,2-difluoroethyl)-1H-pyrazol-5-yl)(4-(4-fluorobenzo[d]oxazol-2-yl)-6,7-dihydro-1H-imidazo[4,5-c]pyridin-5(4H)-yl)methanone]
5 | ≤ 0.5 µM | CC(F)(F)c1ncoc1C(=O)N1CCc2[nH]cnc2[C@H]1c1nc2ccc(F)cc2o1 [Example 649, (S)-(4-(1,1-difluoroethyl)oxazol-5-yl)(4-(6-fluorobenzo[d]oxazol-2-yl)-6,7-dihydro-1H-imidazo[4,5-c]pyridin-5(4H)-yl)methanone]
6 | 0.5 to 1 µM | O=C(c1ocnc1C(F)F)N1CCc2[nH]cnc2[C@H]1c1nc2cc(F)c(F)cc2o1 [Example 295, (S)-(4-(5,6-difluorobenzo[d]oxazol-2-yl)-6,7-dihydro-1H-imidazo[4,5-c]pyridin-5(4H)-yl)(4-(difluoromethyl)oxazol-5-yl)methanone]
7 | 0.5 to 1 µM | COc1ccc2oc([C@H]3c4nc[nH]c4CCN3C(=O)c3ocnc3C(F)F)nc2c1 [Example 342, (R)-(4-(difluoromethyl)oxazol-5-yl)(4-(5-methoxybenzo[d]oxazol-2-yl)-6,7-dihydro-1H-imidazo[4,5-c]pyridin-5(4H)-yl)methanone]

The remaining lines, values behind:

Row | Compound | AC50
8 | O=C(c1nnc(-c2ccc(F)c(F)c2)o1)N1CCc2[nH]cnc2[C@H]1c1nc2cc(F)ccc2o1 [Example 75, (S)-(5-(3,4-difluorophenyl)-1,3,4-oxadiazol-2-yl)(4-(5-fluorobenzo[d]oxazol-2-yl)-6,7-dihydro-1H-imidazo[4,5-c]pyridin-5(4H)-yl)methanone] | 0.5 to 1 µM
9 | O=C(c1ocnc1C(F)(F)F)N1CCc2[nH]cnc2[C@@H]1c1nc2ccc(Br)cc2o1 [Example 144, (R)-(4-(6-bromobenzo[d]oxazol-2-yl)-6,7-dihydro-1H-imidazo[4,5-c]pyridin-5(4H)-yl)(4-(trifluoromethyl)oxazol-5-yl)methanone] | ≤ 0.5 µM
10 | CC(C)(O)c1nc(CF)c(C(=O)N2CCc3[nH]cnc3[C@H]2c2nc3cc(F)ccc3o2)o1 [Example 211, (S)-(4-(5-fluorobenzo[d]oxazol-2-yl)-6,7-dihydro-1H-imidazo[4,5-c]pyridin-5(4H)-yl)(4-(fluoromethyl)-2-(2-hydroxypropan-2-yl)oxazol-5-yl)methanone] | 0.5 to 1 µM

Same assay, conditions: A375 cells expressing R408W PAH; 24 hrs with compound, then 20 μM sepiapterin and 800 μM 13C9,15N-Phenylalanine for 4 hours; 13C-Tyrosine by LC-MS; average where tested multiple times

Row | Compound | AC50
11 | Cn1cc(-c2ncc(C(=O)N3CCc4[nH]cnc4C3c3nc4ccc(Br)cc4o3)o2)cn1 (centres unmarked) | ≥ 5 µM
12 | COCCNc1nnc(C(=O)N2CCc3[nH]cnc3C2c2nc3cc(F)ccc3o2)o1 (centres unmarked) | ≥ 5 µM
13 | O=C(c1nnc(NC2CC2)o1)N1CCc2[nH]cnc2C1c1nc2cc(F)ccc2o1 (centres unmarked) | 1 to 5 µM
14 | O=C1CCCN1CCOc1ccc2c(C(=O)N3CCc4[nH]cnc4C3c3nc4cc(F)ccc4o3)cnn2c1 (centres unmarked) | ≥ 5 µM
15 | Cc1nc(C(C)O)oc1C(=O)N1CCc2[nH]cnc2C1c1nc2c(F)cccc2o1 (centres unmarked) | 1 to 5 µM
16 | N#Cc1nc(N2CCC(F)CC2)oc1C(=O)N1CCc2[nH]cnc2C1c1nc2cc(F)ccc2o1 (centres unmarked) | ≥ 5 µM
17 | CC(C)(c1nc(C(F)F)c(C(=O)N2CCc3[nH]cnc3C2c2nc3cc(F)ccc3o2)o1)S(C)(=O)=O (centres unmarked) | 1 to 5 µM
